Tests used:
Format in all cases: in vivo
Dermanyssus gallinae = assay: Miticidal effect against Dermanyssus gallinae (treated Pasteur pipette, contact test); conditions: 50 ppm in acetone, sucking adult mites, 24 hr after treatment, 25° C.; for pest or weed control at 50 ppm: Dermanyssus gallinae, read-out: Death rate, %
Text: (§1) The tip of a Pasteur pipette was sealed with Parafilm, and a sample compound diluted with acetone to 50 ppm was poured into the pipette from its top. The Parafilm in the tip of the pipette was removed one min after the pouring to discharge the test solution, and the pipette was air dried. Thereafter, an absorbent cotton was inserted into the upper end of the pipette, and 10 sucking adult mites of Dermanyssus gallinae were released in the pipette. The tip of the pipette was sealed with Hematoseal, and the pipette was then placed in a desiccator containing a saturated ammonium sulfate solution in its bottom and was stored under fully darkened conditions at 25° C. The mites were observed under a stereomicroscope 24 hr after the treatment to judge whether the mites were dead or survived, followed by determination of the death rate of mites (%).

[1] = system: Haemaphysalis longicornis; assay: Tickcidal effect against Haemaphysalis longicornis (dry film on glass Schale); conditions: larva ticks, 24 hr, 25° C., relative humidity 100%; for Death rate, %: 10 ppm; for pest or weed control at 10 ppm: Haemaphysalis longicornis, read-out: Death rate, %
Description: A test compound solution (1.0 ml) prepared by dissolving a test compound in acetone and diluting the solution with acetone to 10 ppm was dropped on a glass Schale having a diameter of 9 cm. Acetone was evaporated at room temperature to form a dry film of the test compound at the bottom of the Schale. Larva ticks of Haemaphysalis longicornis (40 to 100 head) were released in the Petri dish, and the Schale was then lidded and was hermetically sealed by covering with a polyethylene sheet. Rearing was carried out at a temperature of 25° C. and a relative humidity of 100% under fully darkened conditions. The number of ticks, which have fallen on their side, was counted 24 hr after the initiation of rearing. The death rate (%) was determined from the number of dead ticks. The test was repeated twice.

Ctenocephalides felis = assay: Insecticidal effect against Ctenocephalides felis (dry film in glass tube); conditions: non-sucking adult fleas, 24 hr, 25° C., relative humidity 90%
Description: Test compound solutions (0.5 ml) prepared by dissolving a test compound in acetone and diluting the solutions with acetone to designated concentrations were placed respectively in glass tubes (inner diameter 2.6 cm, height 12 cm), and acetone was evaporated at room temperature to form a dry film of the test compound at the bottom of each glass tube. Non-sucking adult fleas (10 heads) of Ctenocephalides felis were released in the glass tubes. The glass tubes were then lidded. Whether the fleas were dead or survived was judged 24 hr after the initiation of rearing. The death rate (%) was determined from the number of dead fleas. Rearing was carried out at a temperature of 25° C. and a relative humidity of 90% under fully darkened conditions. The test was repeated three times.

Ornithonyssus sylviarum = assay: Miticidal effect against Ornithonyssus sylviarum (treated Pasteur pipette, contact test); conditions: 50 ppm in acetone, sucking adult mites, 24 hr after treatment, 25° C., read-out: Death rate, %
Text: as §1, with “Ornithonyssus sylviarum” for “Dermanyssus gallinae”, “rate” for “rate of mites”

COC(=O)Oc1c(C)c(C)nc2ccc(Cl)c(Cl)c12 [Compound 67, 2,3-dimethyl-4-methoxycarbonyloxy-5,6-dichloroquinoline]
pest or weed control at 50 ppm (Dermanyssus gallinae): 100%

CCC(=O)Oc1c(C)c(CC)nc2ccc(F)c(F)c12 [Compound 30, 2-ethyl-3-methyl-4-propionyloxy-5,6-difluoroqinoline]
Death rate, % [1]: 100%
Death rate, % (Dermanyssus gallinae): 100%

CCc1nc2ccc(F)c(F)c2c(OC(=O)SC)c1C [Compound 39, 2-ethyl-3-methyl-4-methanethiolcarbonyloxy-5,6-difluoroquinoline]
Death rate, % (Ctenocephalides felis; 4 ppm): 80%
Death rate, % [1]: 100%
Death rate, % (Dermanyssus gallinae): 100%

CCc1nc2ccc(F)c(F)c2c(OC(C)=O)c1C [Compound 12, 2-ethyl-3-methyl-4-acetyloxy-5,6-difluoroquinoline]
pest or weed control at 50 ppm (Ornithonyssus sylviarum): 100%
pest or weed control at 50 ppm (Dermanyssus gallinae): 95%

C#CCOC(=O)Oc1c(C)c(CC)nc2ccc(F)c(F)c12 [Compound 41, 2-ethyl-3-methyl-4-propargyloxycarbonyloxy-5,6-difluoroquinoline]
pest or weed control at 10 ppm [1]: 100%
pest or weed control at 50 ppm (Dermanyssus gallinae): 100%

CC(=O)Oc1c(C)c(C)nc2ccc(F)c(F)c12 [Compound 44, 2,3-dimethyl-4-acetoxy-5,6-difluoro-quinoline]
pest or weed control at 10 ppm [1]: 100%
pest or weed control at 50 ppm (Dermanyssus gallinae): 100%

Cc1nc2ccc(F)c(F)c2c(OC(=O)C2CC2)c1C [Compound 16, 2,3-dimethyl-4-cyclopropanecarbonyloxy-5,6-difluoroquinoline]
pest or weed control at 50 ppm (Ornithonyssus sylviarum): 80%
pest or weed control at 10 ppm [1]: 100%
pest or weed control at 50 ppm (Dermanyssus gallinae): 100%

CCOC(=O)Oc1c(C)c(C)nc2ccc(F)c(F)c12 [Compound 45, 2,3-dimethyl-4-ethyloxycarbonyloxy-5,6-difluoroquinoline]
pest or weed control at 50 ppm (Dermanyssus gallinae): 100%

CC(=O)Oc1c(C)c(C)nc2ccc(Cl)c(Cl)c12 [Compound 65, 2,3-dimethyl-4-acetoxy-5,6-dichloro-quinoline]
pest or weed control at 50 ppm (Dermanyssus gallinae): 80%

CCc1nc2ccc(F)c(F)c2c(OC(=O)C(C)C)c1C [Compound 48, 2-ethyl-3-methyl-4-isobutyryloxy-5,6-difluoroquinoline]
pest or weed control at 50 ppm (Dermanyssus gallinae): 100%

C#CCCCC(=O)Oc1c(C)c(C)nc2ccc(F)c(F)c12 [Compound 58, 2,3-dimethyl-4-(5-hexynoyloxy)-5,6-difluoroquinoline]
pest or weed control at 50 ppm (Dermanyssus gallinae): 80%

C=CCOC(=O)Oc1c(C)c(C)nc2ccc(F)c(F)c12 [Compound 57, 2,3-dimethyl-4-allyloxycarbonyloxy-5,6-difluoroquinoline]
pest or weed control at 50 ppm (Dermanyssus gallinae): 100%

C=COC(=O)Oc1c(C)c(C)nc2ccc(F)c(F)c12 [Compound 51, 2,3-dimethyl-4-vinyloxycarbonyloxy-5,6-difluoroquinoline]
pest or weed control at 50 ppm (Dermanyssus gallinae): 90%

CSC(=O)Oc1c(C)c(C)nc2ccc(F)c(F)c12 [Compound 46, 2,3-dimethyl-4-methanethiolcarbonyloxy-5,6-difluoro-quinoline]
Death rate, % [1]: 100%
Death rate, % (Dermanyssus gallinae): 100%

2,3-dimethyl-4-propargloxycarbonyloxy-5,6-difluoroquinoline [Compound 50]
Death rate, % [1]: 100%
Death rate, % (Dermanyssus gallinae): 95%

CCCCOC(=O)Oc1c(C)c(CC)nc2ccc(F)c(F)c12 [Compound 13, 2-ethyl-3-methyl-4-butoxycarbonyloxy-5,6-difluoroquinoline]
pest or weed control at 50 ppm (Dermanyssus gallinae): 85%

CCc1nc2ccc(F)c(F)c2c(OC(=O)OC(C)C)c1C [Compound 14, 2-ethyl-3-methyl-4-isopropoxycarbonyloxy-5,6-difluoroquinoline]
pest or weed control at 50 ppm (Ornithonyssus sylviarum): 100%

CCc1nc2cc(F)c(F)cc2c(OC(=O)C2CC2)c1C [Compound 1, 2-ethyl-3-methyl-4-cyclopropanecarbonyloxy-6,7-difluoroquinoline]
pest or weed control at 50 ppm (Ornithonyssus sylviarum): 80%
Death rate, % (Ctenocephalides felis; 20 ppm): 100%

CCc1nc2ccc(F)c(Cl)c2c(OC(C)=O)c1C [Compound 19, 2-ethyl-3-methyl-4-acetyloxy-5-chloro-6-fluoroquinoline]
pest or weed control at 50 ppm (Ornithonyssus sylviarum): 100%
Death rate, % (Ctenocephalides felis; 4 ppm): 100%

CCc1nc2ccc(F)c(F)c2c(OC(=O)C2CC2)c1C [Compound 2, 2-ethyl-3-methyl-4-cyclopropanecarbonyloxy-5,6-difluoroquinoline]
pest or weed control at 50 ppm (Ornithonyssus sylviarum): 100%
Death rate, % (Ctenocephalides felis; 4 ppm): 97%
Death rate, % (Ctenocephalides felis; 20 ppm): 100%
pest or weed control at 10 ppm [1]: 100%
pest or weed control at 50 ppm (Dermanyssus gallinae): 100%

CCc1nc2ccc(F)c(F)c2c(OC(=O)OC)c1C [Compound 24, 2-ethyl-3-methyl-4-methoxycarbonyloxy-5,6-difluoroquinoline]
pest or weed control at 50 ppm (Ornithonyssus sylviarum): 100%
Death rate, % (Ctenocephalides felis; 4 ppm): 84%
Death rate, % (Ctenocephalides felis; 20 ppm): 100%
pest or weed control at 10 ppm [1]: 100%
pest or weed control at 50 ppm (Dermanyssus gallinae): 100%

COC(=O)Oc1c(C)c(C)nc2ccc(F)c(C(F)(F)F)c12 [Compound 62, 2,3-dimethyl-4-methoxycarbonyloxy-5-trifluoromethyl-6-fluoroquinoline]
pest or weed control at 50 ppm (Dermanyssus gallinae): 100%

C#CCCOC(=O)Oc1c(C)c(CC)nc2ccc(F)c(F)c12 [Compound 56, 2-ethyl-3-methyl-4-(3-butynyl)oxycarbonyloxy-5,6-difluoroquinoline]
pest or weed control at 10 ppm [1]: 100%
pest or weed control at 50 ppm (Dermanyssus gallinae): 95%

Cc1nc2ccc(F)c(F)c2c(OC(=O)/C=C/Cl)c1C [Compound 53, 2,3-dimethyl-4-(3-transchloroacryloyloxy)-5,6-difluoroquinoline]
pest or weed control at 50 ppm (Dermanyssus gallinae): 100%

Cc1nc2ccc(F)c(F)c2c(OC(=O)/C=C\Cl)c1C [Compound 54, 2,3-dimethyl-4-(3-cischloroacryloyloxy)-5,6-difluoroquinoline]
pest or weed control at 50 ppm (Dermanyssus gallinae): 100%

CCc1nc2ccc(F)c(Cl)c2c(OC(=O)C2CC2)c1C [Compound 21, 2-ethyl-3-methyl-4-cyclopropanecarbonyloxy-5-chloro-6-fluoroquinoline]
pest or weed control at 50 ppm (Ornithonyssus sylviarum): 100%

CCOC(=O)Oc1c(C)c(CC)nc2ccc(F)c(F)c12 [Compound 33, 2-ethyl-3-methyl-4-ethoxycarbonyl-oxy-5,6-difluoroquinoline]
pest or weed control at 50 ppm (Dermanyssus gallinae): 100%

CCCSC(=O)Oc1c(C)c(CC)nc2ccc(F)c(F)c12 [Compound 55, 2-ethyl-3-methyl-4-propanethiolcarbonyloxy-5,6-difluoroquinoline]
Death rate, % (Dermanyssus gallinae): 100%

C#CCCOC(=O)Oc1c(C)c(C)nc2ccc(F)c(F)c12 [Compound 52, 2,3-dimethyl-4-(3-butynyl)oxycarbonyloxy-5,6-difluoroquinoline]
Death rate, % (Ctenocephalides felis; 4 ppm): 70%
pest or weed control at 10 ppm [1]: 100%
pest or weed control at 50 ppm (Dermanyssus gallinae): 100%

COC(=O)Oc1c(C)c(C)nc2ccc(F)c(F)c12 [Compound 25, 2,3-dimethyl-4-methoxycarbonyl-oxy-5,6-difluoroquinoline]
pest or weed control at 50 ppm (Ornithonyssus sylviarum): 100%
pest or weed control at 10 ppm [1]: 100%
pest or weed control at 50 ppm (Dermanyssus gallinae): 100%

Source: patent US7022855B2, “Halogen-substituted quinoline derivatives and ectoparasite control agent” (Meiji Seika Kaisha, Ltd., priority 2001, dated 2006)
